Row | melting point | SMILES
1 | 178 to 179 °C | CCN1CCC(c2c[nH]c3ccc(NC(=O)c4ccco4)cc23)CC1
2 | 115 to 116 °C | O=C(N[C@@H](Cc1ccc2ccccc2c1)[C@H]1CO1)OCc1ccccc1
3 | > 260 °C | Cn1cncc1C(O)(c1ccc(Cl)cc1)c1ccc2c(c1)C(c1cccc(Cl)c1)n1nnnc1N2 (stereo not given)
4 | 110 to 112 °C | CCCCCCNc1ccccc1CC(=O)Nc1c(C(C)C)cccc1C(C)C
5 | 268 to 269 °C | CN1C(C(=O)Nc2cccc(Br)c2)=C(O)c2ccc3ccccc3c2S1(=O)=O
6 | 292 to 296 °C | COC(=O)c1ccc(O)cc1NC(=O)C=Cc1ccc(-c2ccccc2)cc1
7 | 223 to 225 °C | CCc1nn(Cc2ccccn2)c2c(=O)[nH]c(-c3cc(S(C)(=O)=O)ccc3OCC(C)C)nc12
8 | > 230 °C | Cc1nnc(C)n1-c1ccc(C#N)cc1
9 | 178 to 179 °C | CC(=O)NS(=O)(=O)c1ccc(C2=C(c3cccc(F)c3)C(=O)C(C)(C)O2)cc1
10 | 135 °C | COC1(c2nc3ccc(F)cc3s2)C=CC(=NS(=O)(=O)c2ccc(C)cc2)C=C1 (stereo not given)
11 | 190 to 191 °C | CCCc1c(/C=C/c2ccccc2C)nc2ccc(C(=O)O)cn2c1=O
12 | 110 to 111 °C | FC(F)C(F)(F)Oc1cccc(Nc2nccc(-c3ccsc3)n2)c1
13 | 97 to 99 °C | Cn1ncnc1COc1nn2c(C3CC3)nncc2c1-c1ccccc1F
14 | 95 to 101 °C | CC(C)n1c(C=O)c(-c2ccc(F)cc2)c2cccnc21
15 | 119 to 120 °C | CCOc1cc(CCCC2OC(=O)NC2=O)ccc1OCc1coc(-c2ccccc2)n1 (stereo not given)
16 | 110 to 115 °C | CCCCCCCCCCCCCCCCCCCCC1Cc2cc(C(=O)O)ccc2N1 (racemic)
17 | 142 °C | C=CCc1cccc2c(=O)cc(C=Cc3ccccc3)oc12
18 | 43.2 °C | Cc1c(F)c(F)c(COC(=O)[C@@H]2[C@@H](C=O)C2(C)C)c(F)c1F
19 | 108 to 110 °C | CCNC(=N)NC(=O)Cc1cccc(OC)c1
20 | 77 °C | CCOC(=O)C(C)Oc1ccc(OCc2ccccc2)c(F)c1 (stereo not given)
21 | 145 to 148 °C | O=C1C(=O)c2ccccc2C2=C1SCC1(CCN(CC(O)CC(F)(F)F)CC1)O2 (stereo not given)
22 | 78 to 80 °C | COC1=C(OC)C(=O)C2=C(CC(CCCCCCCCN3CCN(Cc4ccccc4)CC3)(c3ccccc3)C2)C1=O
23 | 93 to 98 °C | O=C1C(=O)c2ccc(-c3ccccc3)cc2C2=C1SCC1(CCN(CC(O)COc3ccc(Cl)cc3)CC1)O2 (stereo not given)

Row | melting point | SMILES
24 | 185 to 188 °C | CC(=O)Nc1nc(C#N)cs1
25 | 122 to 123 °C | COc1cc(C=O)ccc1OCc1csc(N2CCOCC2)n1
26 | 87 to 88 °C | O=C(NCCCCn1ccnc1)Nc1ccccc1Cl
27 | 224 to 226 °C | CC(c1oc2ccccc2c(=O)c1-c1cccc(F)c1)n1nc(-c2ccc(OC(F)(F)F)cc2)c2c(N)ncnc21 (stereo not given)
28 | 210 °C | Nc1ccc2ccc(-c3ccc(Cl)c(Cl)c3)nc2n1
29 | 142 °C | CCOC(=O)C1=C(C)NC(C=O)=C(C(=O)OCC)C1c1cccc(O)c1 (stereo not given)
30 | 163 to 165 °C | N=C(NC=Cc1ccc([N+](=O)[O-])cc1)c1ccccc1
31 | 75 °C | ClCCCOc1ccccc1Cc1cccc2[nH]ccc12
32 | 60 °C | C=CC(C)(C)C1=C(O)C(=O)c2ccccc2C1=O
33 | 133 to 135 °C | CCOC(=O)c1cc(C#N)c(C)nc1Nc1ccccc1
34 | 132 to 134 °C | CCN(Cc1cc(Cl)ccc1OCC(C)C)c1ccc(C(=O)O)nn1
35 | 133 °C | CNC(=O)c1cccc(NC(=O)COc2ccccc2OC)c1
36 | 100 to 105 °C | CCN1CCN(C(=O)NC(C(=O)NC2C(=O)N(OCc3ccccc3)C2C)c2ccccc2)C(=O)C1=O (stereo not given)
37 | 83 to 84 °C | CC(C)(C)OC(=O)N1CCC(C(=O)NCCC(=O)OCc2ccccc2)C1 (stereo not given)
38 | 169 to 170 °C | Cc1c(F)c(F)c(-n2ncc(C#N)c2N)c(F)c1F
39 | 217 to 218 °C | O=C(Cn1c(=O)n(S(=O)(=O)c2ccc(Cl)cc2)c(=O)c2ccc(Cl)cc21)Nc1ccccc1
40 | 255 to 256 °C | Nc1nc(NS(=O)(=O)c2ccccc2[N+](=O)[O-])n[nH]1
41 | 204 to 208 °C | O=C(c1ccccc1)c1cccnc1-c1nc(NC2CCCCC2)c2ccccc2n1
42 | 112 to 115 °C | COCCOc1ccc(COC(=O)NS(=O)(=O)c2ccc(Cl)cc2)c(Oc2ncc(C(F)(F)F)cc2Cl)c1
43 | 207 to 208 °C | CCN(C(=O)c1cnc(N2CC(C)NC2=O)nc1N)c1cccc(C(F)(F)F)c1 (stereo not given)
44 | 90 to 91 °C | CC(C(=O)NCc1cccs1)(c1ccccc1)c1ccccc1
45 | 91 to 92 °C | COc1cc([N+](=O)[O-])c(C)cc1Br
46 | 71 to 72 °C | CCCCc1c(/C=C/C(=O)OC)ccc2cc(OC)ccc12

Row | melting point | SMILES
47 | 111 to 113 °C | C=CCc1cc(C(=O)c2ccnn2C)c(Cl)c(Cl)c1OCC(=O)O
48 | 103 to 107 °C | O=C(O)[C@H](Cc1c[nH]c2ccccc12)NS(=O)(=O)c1ccc(N2CCC(c3ccccc3)CC2)cc1
49 | 207 to 208 °C | CN(c1cccc2cc(C3=NCC(CO)S3)[nH]c12)S(=O)(=O)c1cccs1 (stereo not given)
50 | 43 °C | CCOC(C)O[C@@H](C(=O)OC(=O)[C@H](OC(C)OCC)[C@@H](NC(=O)OC(C)(C)C)c1ccccc1)[C@@H](NC(=O)OC(C)(C)C)c1ccccc1 (stereo not given in full)
51 | 61.5 to 63 °C | CC(C)(C)c1cc(SC#N)cc(C(C)(C)C)c1O
52 | 261 to 262 °C | CCNC(=O)c1ccccc1Nc1nc(Nc2ccc3c(c2)C(C)(C)CNC(=O)C3)ncc1Cl
53 | 156 to 158 °C | COc1ccc2cc(C3CCN(C[C@H](O)COc4cccc5oc(-c6nnc(C)o6)cc45)CC3)ccc2c1
54 | 35 to 38 °C | C#CC(C)(C)OC(=O)N1CCNCC1
55 | 178 to 180 °C | CC12CCC3c4cc([N+](=O)[O-])c(O)cc4CCC3C1CCC2=O (stereo not given)
56 | 227 to 229 °C | O=C(Nc1ccccc1)c1cc(Oc2ccc3c(c2)CCN3C(=O)Nc2cccc(C(F)(F)F)c2)ncn1
57 | 173 to 175 °C | COc1cc2c(cc1OC)C(C(S)(C#N)CC(=O)O)=NCC2 (stereo not given)
58 | 132 to 134 °C | CN1CCC2(CC1)C(=O)N(C)C(=O)N2c1ccccc1
59 | 326 to 330 °C | CC1(C)CNc2nc3cnc4ccccc4c3n2C1
60 | 128 to 130 °C | CC(=O)Oc1c(C)cc2c(c1C)C(C)CN2C(C)=O (stereo not given)
61 | 69 to 71 °C | CCCCCCCCCCCCc1c[nH]cn1
62 | 202 to 205 °C | CC1(C)C=Cc2c(ccc3c2C(=O)C(Br)=C(O)C3=O)O1
63 | 118 to 120 °C | Clc1cc(Nc2cc(C3CC3)n[nH]2)nc(Sc2ccc3ccccc3c2)n1
64 | 98 to 100 °C | O=Cc1c(Cl)cc(Cl)cc1OCc1ccccc1
65 | 87 to 88 °C | CC(C)(C)C(=O)SCCNC(=O)CCNC(=O)OCc1ccccc1
66 | 70 to 71 °C | O=C(CCC(=O)OC(=O)CCC(=O)OCc1ccccc1)OCc1ccccc1
67 | 184 to 186 °C | COc1ccc(-c2cc(C(Nn3cnnc3)c3ccccc3OS(N)(=O)=O)ccc2C#N)cc1 (stereo not given)
68 | 194 °C | COc1ccc(S(=O)(=O)N2C(=O)C(=O)c3cc(Cl)ccc32)c(OC)c1
69 | 93 to 95 °C | c1cc2c(cn1)ncn2CCCCc1nnnn1C1CCCCC1

Row | SMILES | melting point
70 | CC(C)NCC(O)c1ccc(N)c(C#N)c1 (stereo not given) | 159 to 161 °C

Source: a melting point compilation (Tetko et al.; mined from patent text by program, amines drawn as free bases though some values may be those of a salt)
